Results published in patent US20130071854A1, “METHODS FOR THE IDENTIFICATION AND CHARACTERIZATION OF HDAC INTERACTING COMPOUNDS” (priority 2009, published 2013).
“And” between values parts separate entries of the source, which are not always exact repeats. Equal values may be shown once. Read-outs that look alike come from different tables or passages of the source.

Columns and labels:
HDAC10 = target: T1, HDAC10 (Homo sapiens, UniProt Q969S8); assay: Chemoproteomic binding profiling, K562 cell extract, SAHA/ITF2357 probe matrix (Kd app); conditions: for binding profile for HDAC10 (in words): K562 cell extract
T1 construct: used to probe endogenous HDACs in K562 whole cell extracts; endogenous in cells
T1 sequence (Q969S8 1-669): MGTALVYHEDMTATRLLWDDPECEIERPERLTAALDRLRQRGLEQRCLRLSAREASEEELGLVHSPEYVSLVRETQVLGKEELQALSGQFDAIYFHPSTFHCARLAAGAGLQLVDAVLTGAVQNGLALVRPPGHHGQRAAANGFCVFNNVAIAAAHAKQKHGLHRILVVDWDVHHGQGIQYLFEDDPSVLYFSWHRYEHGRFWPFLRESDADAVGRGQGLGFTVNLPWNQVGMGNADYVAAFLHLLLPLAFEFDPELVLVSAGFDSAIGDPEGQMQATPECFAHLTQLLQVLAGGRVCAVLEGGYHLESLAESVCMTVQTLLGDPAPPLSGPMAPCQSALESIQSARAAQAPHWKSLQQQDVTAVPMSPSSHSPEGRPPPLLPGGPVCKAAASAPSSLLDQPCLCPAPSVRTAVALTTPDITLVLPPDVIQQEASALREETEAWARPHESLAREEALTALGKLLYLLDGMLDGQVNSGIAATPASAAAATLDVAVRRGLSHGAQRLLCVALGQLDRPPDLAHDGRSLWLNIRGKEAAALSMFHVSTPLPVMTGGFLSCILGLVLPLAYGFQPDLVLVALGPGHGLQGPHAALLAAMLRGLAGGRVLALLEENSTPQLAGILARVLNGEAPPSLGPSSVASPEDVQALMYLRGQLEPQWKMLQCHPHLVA

NuRD complex = assay: as above; set-up: species or system human
MIER1 = assay: Chemoproteomic binding profiling, K562 cell extract, SAHA/ITF2357 probe matrix (Kd app), ELSA (ELM-SANT) domain protein; set-up: species or system human; conditions: ELSA (ELM-SANT) domain proteins
MIER3 = assay: as above; set-up: species or system human; conditions: ELSA (ELM-SANT) domain proteins
RERE = assay: as above; set-up: species or system human; conditions: protein RERE; ELSA (ELM-SANT) domain proteins
HDAC6 = target: T2, HDAC6 (Homo sapiens, UniProt Q9UBN7); assay: Chemoproteomic binding profiling, K562 cell extract, SAHA/ITF2357 probe matrix (Kd app); set-up: used to probe endogenous HDACs in K562 whole cell extracts; endogenous in cells; conditions: for binding profile for HDAC6 (in words): K562 cell extract
T2 sequence (Q9UBN7 1-1215): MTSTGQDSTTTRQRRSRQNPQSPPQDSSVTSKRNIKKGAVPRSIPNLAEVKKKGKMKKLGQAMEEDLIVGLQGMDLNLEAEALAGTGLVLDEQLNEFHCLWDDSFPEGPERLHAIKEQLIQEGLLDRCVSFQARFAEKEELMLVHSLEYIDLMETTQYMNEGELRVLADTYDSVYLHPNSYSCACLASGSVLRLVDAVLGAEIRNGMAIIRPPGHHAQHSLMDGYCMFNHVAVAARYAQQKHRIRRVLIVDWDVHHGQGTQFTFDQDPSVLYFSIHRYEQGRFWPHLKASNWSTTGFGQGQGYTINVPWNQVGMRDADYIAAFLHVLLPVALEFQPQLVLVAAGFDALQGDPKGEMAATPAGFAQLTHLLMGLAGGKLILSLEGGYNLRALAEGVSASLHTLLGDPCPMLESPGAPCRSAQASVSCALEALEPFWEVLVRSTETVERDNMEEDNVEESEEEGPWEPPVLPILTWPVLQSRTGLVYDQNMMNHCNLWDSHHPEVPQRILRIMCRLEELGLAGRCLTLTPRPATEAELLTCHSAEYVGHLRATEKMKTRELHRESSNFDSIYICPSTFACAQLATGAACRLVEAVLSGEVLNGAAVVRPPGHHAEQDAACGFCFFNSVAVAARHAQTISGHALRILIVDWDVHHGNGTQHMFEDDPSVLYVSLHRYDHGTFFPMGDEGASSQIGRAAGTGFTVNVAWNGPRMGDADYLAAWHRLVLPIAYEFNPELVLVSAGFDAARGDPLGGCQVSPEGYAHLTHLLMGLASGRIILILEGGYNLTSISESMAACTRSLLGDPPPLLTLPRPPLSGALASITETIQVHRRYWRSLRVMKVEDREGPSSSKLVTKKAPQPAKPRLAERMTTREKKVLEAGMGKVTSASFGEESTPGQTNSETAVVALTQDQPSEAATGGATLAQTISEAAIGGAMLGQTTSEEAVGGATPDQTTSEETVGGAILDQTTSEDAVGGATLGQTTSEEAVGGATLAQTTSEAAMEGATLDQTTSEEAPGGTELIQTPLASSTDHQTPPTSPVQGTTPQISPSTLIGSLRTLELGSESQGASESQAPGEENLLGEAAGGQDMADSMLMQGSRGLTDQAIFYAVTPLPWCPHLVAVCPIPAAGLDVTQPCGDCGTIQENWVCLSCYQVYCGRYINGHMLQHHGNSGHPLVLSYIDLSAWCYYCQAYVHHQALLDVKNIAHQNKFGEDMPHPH

ISOC1 = target: T3, ISOC1 (Homo sapiens, UniProt Q96CN7); assay: Competition binding assay in cell lysate, affinity matrix, MS
T3 construct: endogenous in cells
T3 sequence (Q96CN7 1-298): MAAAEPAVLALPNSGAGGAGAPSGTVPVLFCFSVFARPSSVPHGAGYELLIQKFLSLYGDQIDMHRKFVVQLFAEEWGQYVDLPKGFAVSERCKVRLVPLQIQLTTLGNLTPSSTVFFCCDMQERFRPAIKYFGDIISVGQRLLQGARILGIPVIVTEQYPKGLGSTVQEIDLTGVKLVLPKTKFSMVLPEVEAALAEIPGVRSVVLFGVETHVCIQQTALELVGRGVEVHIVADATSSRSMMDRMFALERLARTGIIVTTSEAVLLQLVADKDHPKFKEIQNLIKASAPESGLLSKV

MTA3 = assay: Competition binding assay in cell lysate, affinity matrix, MS (Mi-2/NuRD interactor)
acetylated tubulin = assay: Cell-based tubulin acetylation assay (immunofluorescence, western blotting); set-up: species or system human; conditions: for tubulin acetylation (in words): K562 and HeLa cells, immunofluorescence and western blotting
[1] = protein HDAC10, class II HDAC, read-out: Kd^app HDAC10
[2] = protein CHD4, NuRD complex, read-out: Kd^app CHD4
[3] = protein GATAD2A, NuRD complex, read-out: Kd^app GATAD2A
[4] = protein GATAD2B, NuRD complex, read-out: Kd^app GATAD2B
[5] = protein MBD2, NuRD complex, read-out: Kd^app MBD2
[6] = protein MBD3, NuRD complex, read-out: Kd^app MBD3
[7] = protein MTA1, NuRD complex, read-out: Kd^app MTA1
[8] = protein MTA3, NuRD complex, read-out: Kd^app MTA3
[9] = protein HDAC6, class II HDAC, read-out: Kd^app HDAC6
[10] = protein MTA2, NuRD complex, read-out: Kd^app MTA2

| Kd (HDAC10; [1]) [µM] | Compound | binding profile for HDAC10 (in words) (HDAC10) | Kd (NuRD complex; [2]) [µM] | Kd (NuRD complex; [3]) [µM] | Kd (NuRD complex; [4]) [µM] | Kd (NuRD complex; [5]) [µM] | Kd (NuRD complex; [6]) [µM] | Kd (NuRD complex; [7]) [µM] | Kd (NuRD complex; [8]) [µM] | Kd (MIER1) [µM] | Kd (MIER3) [µM] | Kd (RERE) [µM] | binding profile for HDAC6 (in words) (HDAC6) | Kd (HDAC6; [9]) [µM] | IC50 (MTA3; K-562 cell lysate) [µM] | tubulin acetylation (in words) (acetylated tubulin) | Kd (NuRD complex; [10]) [µM] | also measured |
| --- | --- | --- | --- | --- | --- | --- | --- | --- | --- | --- | --- | --- | --- | --- | --- | --- | --- | --- |
| – | Nc1ccccc1NC(=O)c1ccc(CNC(=O)OCc2cccnc2)cc1 [MS-275] | – | – | – | – | – | – | – | – | > 300 | > 300 | > 300 | – | – | 300 | – | – | IC50 (ISOC1; read-out: IC50): ≥ 300 µM; Kd (NuRD complex; read-out: Kd^app CHD4): > 300 µM; Kd (NuRD complex; read-out: Kd^app GATAD2A): > 300 µM; Kd (NuRD complex; read-out: Kd^app GATAD2B): > 300 µM; Kd (NuRD complex; read-out: Kd^app MBD2): > 300 µM; Kd (NuRD complex; read-out: Kd^app MBD3): > 300 µM; Kd (NuRD complex; read-out: Kd^app MTA1): > 300 µM; Kd (NuRD complex; read-out: Kd^app MTA2): > 300 µM; Kd (NuRD complex; read-out: Kd^app MTA3): > 300 µM |
| – | O=C(CCCCCCC(=O)Nc1ccccc1)NO [SAHA, suberoylanilide hydroxamic acid] | – | – | – | – | – | – | – | – | – | – | – | – | – | 1.93 | increased steady state acetylation of tubulin and histones | – | IC50 (ISOC1; IC50, ISOC1, K-562 cell lysate): 1.1 µM; IC50 (ISOC1; IC50, ISOC1, mix of Jurkat and Ramos cell lysates): 2.19 µM; IC50 (MTA3; mix of Jurkat and Ramos cell lysates): 1.8 µM and 1.82 µM |
| – | O=C(/C=C/c1cccc(S(=O)(=O)Nc2ccccc2)c1)NO [belinostat] | – | – | – | – | – | – | – | – | 0.17 | – | – | – | – | – | – | – | Kd (HDAC10): 4.43 µM; Kd (HDAC6): 0.41 µM |
| 10 | CCCCOc1ccc(CC(=O)NO)cc1 [bufexamac] | selectivity for HDAC6 and HDAC10 | 386 | 572 | > 59.7 | – | 409 | 168 | 626 | 367 | 165 | 33 | selectivity for HDAC6 and HDAC10 | 10 | – | hyperacetylation of tubulin | 555 | EC50 (acetylated tubulin; Homo sapiens, HeLa cells, treated 4 h, western blotting): 2.9 µM; tubulin acetylation (in words) (acetylated tubulin; listed as Bufexamac): strong increase in acetylated tubulin |
| > 10 | CCCC(CCC)C(=O)O [valproate, valproic acid] | – | 544 | 1040 | 843 | 1300 | 930 | 528 | 667 | 507 | 344 | 3120 | – | – | – | did not affect tubulin | 997 | Kd (HDAC6; read-out: Kd^app HDAC6, protein HDAC6, class II HDAC): > 10 µM |

| Compound | Kd (HDAC10; [1]) [µM] | binding profile for HDAC10 (in words) (HDAC10) | Kd (NuRD complex; [2]) [µM] | Kd (NuRD complex; [3]) [µM] | Kd (NuRD complex; [4]) [µM] | Kd (NuRD complex; [5]) [µM] | Kd (NuRD complex; [6]) [µM] | Kd (NuRD complex; [7]) [µM] | Kd (NuRD complex; [8]) [µM] | Kd (MIER1) [µM] | Kd (MIER3) [µM] | Kd (RERE) [µM] | binding profile for HDAC6 (in words) (HDAC6) | Kd (HDAC6; [9]) [µM] | IC50 (MTA3; K-562 cell lysate) [µM] | tubulin acetylation (in words) (acetylated tubulin) | Kd (NuRD complex; [10]) [µM] | also measured |
| --- | --- | --- | --- | --- | --- | --- | --- | --- | --- | --- | --- | --- | --- | --- | --- | --- | --- | --- |
| Nc1ccccc1NC(=O)CCCCCCC(=O)Nc1ccccc1 [BML-210] | > 85 | complete loss of potency for class IIb | 30 | > 85 | 69 | 83 | 59 | 15 | 69 | 50 | 47 | > 85 | complete loss of potency for class IIb | > 85 | – | – | – | – |
